Experimental findings from article PMC5517562, “Design and discovery of novel monastrol-1,3,5-triazines as potent anti-breast cancer agent via attenuating Epidermal Growth Factor Receptor tyrosine kinase” (Scientific Reports, 2017) are described below.

In one experiment the test system is HeLa (cervical cancer). The experiment in a line: MTT in vitro cytotoxicity assay, HeLa. To be noted: Homo sapiens. The class given is cell-based, human. As to the method:
(§1) The synthesized compounds were evaluated for in-vitro cytotoxic activity against various cell lines such as HeLa (cervical cancer), MCF-7 (breast cancer), HL-60 (Human promyelocytic leukemia), HepG2 (Hepatocellular carcinoma) and MCF 12A (normal epithelial cell) by the MTT assay method. […] The relationship between surviving fraction and drug concentration was plotted to obtain the survival curve of all the cancer cell lines HeLa, MCF-7, HL-60 and HepG2. The response parameter calculated was the IC50 values, which responds to the concentration required for 50% inhibition of cell viability. The in-vitro cytotoxic activity of the synthesized compounds is summarized Table 3.
(§2) The target compounds were subjected to in vitro cytotoxicity bioassay. In vitro cytotoxicity was determined using a standard MTT assay with protocol appropriate for the individual test system[29]–[31]. The four human cancer cell lines HeLa, MCF-7, HL-60, HepG2 and MCF-12A were cultured in the MEM medium supplemented with 10% FBS, 1% glutamine and […] gentamicin sulfate in a CO2 incubator in a humidified atmosphere of 5% CO2 and 95% air. The test compounds were prepared prior to the experiment by dissolving in 0.1% DMSO and diluted with medium. The cells were then exposed to different concentrations of drugs ([…]) in the volume of […]. Cells in the control wells received the same volume of medium containing 0.1% DMSO. After 24 h, the medium was removed and cell cultures were incubated with […] MTT reagent (1 mg/ml) for 5 h at 37 °C. The known number of cells ([…]) was incubated in a 5% CO2 incubator at 37 °C in the presence of different concentrations of test compounds. After 48 h of drug incubation, the MTT solution was added in each well and absorbance was recorded at 540 nm by an ELISA reader. The experiment was performed in triplicate. Cell survival was calculated as the percentage of MTT inhibition as % growth inhibition = 100 − (mean OD of individual test Group/Mean OD of each Control Group) × 100.

Experiment [1] relates to MCF 12A (normal epithelial breast cell line). The experiment can be described thus: MTT assay on normal cells, MCF 12A. The class given is cell-based, human. The following applies: normal epithelial breast cell MCF 12A. As to the method:
as §1
The presence of non-halogen substituent along with electron donating substituent seriously jeopardise the anticancer potential. […] To determine the selectivity of these molecules between normal and cancerous cells, the designed compounds were also tested against MCF 12A, a normal epithelial breast cell.
as §2
In general terms: Formazan colour is commonly taken as a measure of viable cells.

For experiment [2], the system named is DMBA induced mammary tumor. The experiment in a line: DMBA induced mammary tumor in female Sprague-Dawley rats. The format is in vivo, rat. The source says:
Encouraged by the excellent EGFR-TK inhibitory activity and anticancer effect of compound 7l against breast cancer cells which are further substantiated with docking analysis, prompted us to further analyze the effect of compound 7l in the in-vivo system. Therefore, we have utilized 7,12-Dimethylbenz(a)anthracene (DMBA), a polycyclic aromatic hydrocarbon, to induce the mammary carcinogenesis in the experimental animals to quantify the potential protective effect of compound 7l. The mechanism behind its action to induce the cancer is based on its metabolized product, i.e. the epoxide that readily forms DNA adducts which is responsible for malignant alteration. At the first instance, the effect of compound 7l was analyzed on the effect of body weight of the experimental animals.
Animal model. The female Sprague-Dawley rats (100–120 g) were obtained from the Institutional animal house after approval from the Institutional Animal Ethics Committee. The animals were kept in suitable cages with free access to food and water under a controlled temperature (24 ± 2 °C), humidity (60 ± 10%) with alternate light/dark cycle of 12 h. The entire experimental procedures involving animals were approved by the Institutional Animal Ethics Committees (IAEC) of SHUATS, in accordance and duly approved with CPCSEA (Committee for the Purpose of Control and Supervision of Experiments on Animals, Government of India. The authors confirm that all experiments were performed in accordance with relevant guidelines and regulations of SHUATS.
Initiation of breast carcinogenesis. The mammary carcinogenesis was induced in experimental rat using one-time subcutaneous administration of DMBA (25 mg) in emulsified form with the help of sunflower oil and saline to each rat.
Design of experiment. Experimental design. Total numbers of 30 animals were randomly divided into five groups and each group contains 6 animals. The various groups received different treatment as follows:
The DMBA (s.c.; 25 mg/rat) was administered to each rats near mammary gland at the end of the first week. The test drug was administered once in a day and was continued till the end of the experimental period. At the end of 16th week, the rats were fasted overnight and sacrificed by the cervical decapitation under influence of anesthesia. The blood samples were collected in and after centrifugation, the plasma was used for the further biochemical analysis. The liver and mammary tissues were excised immediately from the experimental rats and homogenized with suitable buffer, centrifuged and the resulting supernatant was used for biochemical estimations.
Biochemical Estimation. The remaining excised liver and mammary tissues were rinsed in ice-cold saline and known amount of the tissue were homogenized in 0.1 M Tris-HCl buffer (pH 7.4) at 4°C. The supernatant was collected as tissue homogenate and was used for the estimation of various biochemical parameters. The microsomal protein concentration was estimated by the method of Lowry et al.[33]; while, the concentration of plasma and mammary TBARS was estimated by the earlier reported method, [35] and the concentration of plasma and mammary tissue LOOH were estimated by the previous method. Moreover, the activity of the antioxidant enzyme system, such as SOD, CAT, GPX, GSH, CYP450, Cyt-b5, GST and GR activity in plasma and mammary tissue were determined by the earlier method given elsewhere[37]–[43].

[3] abbreviates: DMBA rats, 5, 10, 15 mg/kg once a day.
The mark [4] stands for this setting: liver and mammary tissues of DMBA treated animals.
Where [5] appears, read: plasma and mammary tissues of DMBA treated animals.

In the experiment with HeLa (cervical cancer), `CCOC(=O)C1=C(C)N(c2nc(Nc3cccc(F)c3)nc(Nc3cccc(F)c3)n2)C(=S)NC1c1ccc(F)cc1` (stereo not drawn) [7l, Ethyl 1-(4,6-bis((3-fluorophenyl)amino)-1,3,5-triazin-2-yl)-4-(4-fluorophenyl)-6-methyl-2-thioxo-1,2,3,4-tetrahydropyrimidine-5-carboxylate] showed an IC50 of 39.7 ± 0.81 µM. Also, in experiment [1], the “IC50 MCF 12A” value is “non-toxic”. Moreover, in experiment [2] (setting [3]), the “Percentage of tumour incidence” value was “efficient in reducing the percentage of incidence of tumour” and the Tumour volume result is reported as “significant reduction”. In experiment [2] (DMBA rats, 5, 10, 15 mg/kg once a day, vs DMBA group), the “Body weight of experimental animals” value is reported as “significantly improved”. For the same compound, in experiment [2] (setting [4]), the “Concentration of Phase I enzymes (CYP450 and Cyt-b5)” value is “marked decline”; the “Concentration of Phase II enzymes (GST and GR)” value is listed as “significant upsurge”. Moreover, in experiment [2] (setting [5]), the “Antioxidant status (SOD, CAT, GSH, GPx)” value is on record as “significant improvement”; the “Level of TBARS and LOOH (lipid peroxidation)” value is given as “significant reduction”.

In general, IC50 refers to the midpoint of a concentration-inhibition curve. Lower therefore signals higher potency.
